Assay results reported in ChEMBL document CHEMBL1201861, “Genomics of Drug Sensitity in Cancer screening data, Wellcome Trust Sanger Institute”.

Experiments:
Experiment in all cases: cells
EW-13 = type: functional, cell-based, Homo sapiens; conditions: Homo sapiens, EW-13; read-out: IC50;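 also: growth inhibition of EW-13 cells, read out with a cell viability assay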
Description: SANGER: Inhibition of human EW-13 cell growth in a cell viability assay.

KNS-81-FD = type: functional, cell-based, Homo sapiens; conditions: Homo sapiens, KNS-81-FD;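 also: growth inhibition of KNS-81-FD cells, read out with a cell viability assay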
Description: SANGER: Inhibition of human KNS-81-FD cell growth in a cell viability assay.

NCI-H747 = type: functional, cell-based, Homo sapiens; conditions: Homo sapiens, NCI-H747;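 also: growth inhibition of human NCI-H747 cells, read out by a cell viability assay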
Description: SANGER: Inhibition of human NCI-H747 cell growth in a cell viability assay.

ES1 = type: functional, cell-based, Homo sapiens; conditions: Homo sapiens, ES1;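 also: growth inhibition of ES1 cells, read out with a cell viability assay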
Description: SANGER: Inhibition of human ES1 cell growth in a cell viability assay.

KP-N-YS = type: functional, cell-based, Homo sapiens; conditions: Homo sapiens, KP-N-YS;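 also: cell viability assay measuring inhibition of cell line growth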
Description: SANGER: Inhibition of human KP-N-YS cell growth in a cell viability assay.

Becker = type: functional, cell-based, Homo sapiens; conditions: Homo sapiens, Becker;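 also: growth inhibition of Becker cells, read out with a cell viability assay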
Description: SANGER: Inhibition of human Becker cell growth in a cell viability assay.

U-87 MG = type: functional, cell-based, Homo sapiens, U-87MG ATCC; conditions: Homo sapiens, U-87 MG;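 also: growth inhibition of the cells measured with a viability assay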
Description: SANGER: Inhibition of human U-87-MG cell growth in a cell viability assay.

NCI-H1395 = type: functional, cell-based, Homo sapiens; conditions: Homo sapiens, NCI-H1395;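 also: cell viability assay read-out quantifying reduced proliferation of human NCI-H1395 cells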
Description: SANGER: Inhibition of human NCI-H1395 cell growth in a cell viability assay.

LNCaP-Clone-FGC = type: functional, cell-based, Homo sapiens; conditions: Homo sapiens, LNCaP-Clone-FGC
Description: SANGER: Inhibition of human LNCaP-Clone-FGC cell growth in a cell viability assay.

AM-38 = type: functional, cell-based, Homo sapiens; conditions: Homo sapiens, AM-38;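 also: growth inhibition of AM-38 cells of human origin, read out by a cell viability assay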
Description: SANGER: Inhibition of human AM-38 cell growth in a cell viability assay.

SNU1 = type: functional, cell-based, Homo sapiens; conditions: Homo sapiens, SNU1;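 also: growth inhibition of human NCI-SNU-1 cells, measured with a cell viability assay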
Description: SANGER: Inhibition of human NCI-SNU-1 cell growth in a cell viability assay.

HOP-62 = type: functional, cell-based, Homo sapiens; conditions: Homo sapiens, HOP-62;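 also: cell growth inhibition determined with a viability assay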
Description: SANGER: Inhibition of human HOP-62 cell growth in a cell viability assay.

ONS-76 = type: functional, cell-based, Homo sapiens; conditions: Homo sapiens, ONS-76;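 also: growth inhibition of human ONS-76 cells, read out with a cell viability assay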
Description: SANGER: Inhibition of human ONS-76 cell growth in a cell viability assay.

RKO = type: functional, cell-based, Homo sapiens; conditions: Homo sapiens, RKO;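 also: growth inhibition of human RKO cells, read out with a cell viability assay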
Description: SANGER: Inhibition of human RKO cell growth in a cell viability assay.

CCRF-CEM = type: functional, cell-based, Homo sapiens; conditions: Homo sapiens, CCRF-CEM;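 also: inhibition of CCRF-CEM cell growth, measured by a cell viability assay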
Description: SANGER: Inhibition of human CCRF-CEM cell growth in a cell viability assay.

LS-513 = type: functional, cell-based, Homo sapiens; conditions: Homo sapiens, LS-513
Description: SANGER: Inhibition of human LS-513 cell growth in a cell viability assay.

LC-2-ad = type: functional, cell-based, Homo sapiens; conditions: Homo sapiens, LC-2-ad;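 also: growth inhibition of human LC-2-ad cells, read out with a cell viability assay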
Description: SANGER: Inhibition of human LC-2-ad cell growth in a cell viability assay.

CAS-1 = type: functional, cell-based, Homo sapiens; conditions: Homo sapiens, CAS-1;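 also: growth inhibition of CAS-1 cells, measured with a cell viability assay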
Description: SANGER: Inhibition of human CAS-1 cell growth in a cell viability assay.

MOLT-16 = type: functional, cell-based, Homo sapiens; conditions: Homo sapiens, MOLT-16;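 also: growth inhibition of human MOLT-16 cells, read out with a cell viability assay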
Description: SANGER: Inhibition of human MOLT-16 cell growth in a cell viability assay.

NOMO-1 = type: functional, cell-based, Homo sapiens; conditions: Homo sapiens, NOMO-1;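 also: growth inhibition of human NOMO-1 cells measured by a cell viability assay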
Description: SANGER: Inhibition of human NOMO-1 cell growth in a cell viability assay.

RH-1 = type: functional, cell-based, Homo sapiens; conditions: Homo sapiens, RH-1;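 also: growth inhibition of human RH-1 cells, read out with a cell viability assay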
Description: SANGER: Inhibition of human RH-1 cell growth in a cell viability assay.

MZ1-PC = type: functional, cell-based, Homo sapiens; conditions: Homo sapiens, MZ1-PC;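 also: cell viability assay measuring growth inhibition of human MZ1-PC cells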
Description: SANGER: Inhibition of human MZ1-PC cell growth in a cell viability assay.

SHP77 = type: functional, cell-based, Homo sapiens, SHP-77; conditions: Homo sapiens, SHP77;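 also: growth inhibition of human SHP-77 cells measured by a cell viability assay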
Description: SANGER: Inhibition of human SHP-77 cell growth in a cell viability assay.

SCH = type: functional, cell-based, Homo sapiens; conditions: Homo sapiens, SCH;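 also: growth inhibition of human SCH cells, read out in a cell viability assay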
Description: SANGER: Inhibition of human SCH cell growth in a cell viability assay.

LU-134-A = type: functional, cell-based, Homo sapiens; conditions: Homo sapiens, LU-134-A
Description: SANGER: Inhibition of human LU-134-A cell growth in a cell viability assay.

LB771-HNC = type: functional, cell-based; conditions: Homo sapiens;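 also: growth inhibition of LB771-HNC human cells, read out with a cell viability assay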
Description: SANGER: Inhibition of human LB771-HNC cell growth in a cell viability assay.

IST-MEL1 = type: functional, cell-based, Homo sapiens; conditions: Homo sapiens, IST-MEL1;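 also: growth inhibition of the cell line, read out with a cell viability assay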
Description: SANGER: Inhibition of human IST-MEL1 cell growth in a cell viability assay.

KALS-1 = type: functional, cell-based, Homo sapiens; conditions: Homo sapiens, KALS-1; read-out: IC50;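 also: growth inhibition of KALS-1 cells, determined with a cell viability assay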
Description: SANGER: Inhibition of human KALS-1 cell growth in a cell viability assay.

KARPAS-299 = type: functional, cell-based, Homo sapiens; conditions: Homo sapiens, KARPAS-299
Description: SANGER: Inhibition of human KARPAS-299 cell growth in a cell viability assay.

MSTO-211H = type: functional, cell-based, Homo sapiens; conditions: Homo sapiens, MSTO-211H
Description: SANGER: Inhibition of human MSTO-211H cell growth in a cell viability assay.

LB996-RCC = type: functional, cell-based, Homo sapiens; conditions: Homo sapiens, LB996-RCC
Description: SANGER: Inhibition of human LB996-RCC cell growth in a cell viability assay.

ES4 = type: functional, cell-based, Homo sapiens; conditions: Homo sapiens, ES4;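 also: growth inhibition of human ES4 cells, read out by a cell viability assay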
Description: SANGER: Inhibition of human ES4 cell growth in a cell viability assay.

LAMA-84 = type: functional, cell-based, Homo sapiens; conditions: Homo sapiens, LAMA-84;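 also: growth inhibition of LAMA-84 cells, read out with a cell viability assay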
Description: SANGER: Inhibition of human LAMA-84 cell growth in a cell viability assay.

SK-N-FI = type: functional, cell-based, Homo sapiens; conditions: Homo sapiens, SK-N-FI;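 also: cell viability assay measuring growth inhibition of human SK-N-FI cells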
Description: SANGER: Inhibition of human SK-N-FI cell growth in a cell viability assay.

HCC2157 = type: functional, cell-based, Homo sapiens; conditions: Homo sapiens, HCC2157;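 also: growth inhibition of the cancer cell line, read out as cell viability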
Description: SANGER: Inhibition of human HCC2157 cell growth in a cell viability assay.

BB30-HNC = type: functional, cell-based, Homo sapiens; conditions: Homo sapiens, BB30-HNC;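 also: growth inhibition of the cultured cell line, read out by a cell viability assay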
Description: SANGER: Inhibition of human BB30-HNC cell growth in a cell viability assay.

A101D = type: functional, cell-based, Homo sapiens; conditions: Homo sapiens, A101D;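 also: growth inhibition of the cell line, measured with a viability assay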
Description: SANGER: Inhibition of human A101D cell growth in a cell viability assay.

EW-16 = type: functional, cell-based, Homo sapiens; conditions: Homo sapiens, EW-16;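 also: growth inhibition of human EW-16 cells, read out as cell viability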
Description: SANGER: Inhibition of human EW-16 cell growth in a cell viability assay.

TE-5 = type: functional, cell-based, Homo sapiens; conditions: Homo sapiens, TE-5;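 also: inhibition of cell growth, read out by a cell viability assay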
Description: SANGER: Inhibition of human TE-5 cell growth in a cell viability assay.

JVM-3 = type: functional, cell-based, Homo sapiens; conditions: Homo sapiens, JVM-3;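 also: growth inhibition of human JVM-3 cells, read out with a cell viability assay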
Description: SANGER: Inhibition of human JVM-3 cell growth in a cell viability assay.

RPMI-8866 = type: functional, cell-based, Homo sapiens; conditions: Homo sapiens, RPMI-8866
Description: SANGER: Inhibition of human RPMI-8866 cell growth in a cell viability assay.

KE-37 = type: functional, cell-based, Homo sapiens; conditions: Homo sapiens, KE-37;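 also: growth inhibition of KE-37 cells, read out with a cell viability assay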
Description: SANGER: Inhibition of human KE-37 cell growth in a cell viability assay.

ACN = type: functional, cell-based, Homo sapiens; conditions: Homo sapiens, ACN;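 also: growth inhibition of the human ACN cell line, read out via cell viability testing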
Description: SANGER: Inhibition of human ACN cell growth in a cell viability assay.

LB831-BLC = type: functional, cell-based, Homo sapiens; conditions: Homo sapiens, LB831-BLC;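 also: growth inhibition of LB831-BLC cells, read out with a cell viability assay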
Description: SANGER: Inhibition of human LB831-BLC cell growth in a cell viability assay.

ML-2 = type: functional, cell-based, Homo sapiens; conditions: Homo sapiens, ML-2;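 also: growth inhibition of ML-2 cells, measured with a cell viability readout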
Description: SANGER: Inhibition of human ML-2 cell growth in a cell viability assay.

LAN-6 = type: functional, cell-based, Homo sapiens; conditions: Homo sapiens, LAN-6;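 also: growth inhibition of LAN-6 cells, determined with a cell viability assay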
Description: SANGER: Inhibition of human LAN-6 cell growth in a cell viability assay.

C8166 = type: functional, cell-based, Homo sapiens; conditions: Homo sapiens, C8166;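 also: growth inhibition of human C8166 cells measured by a cell viability assay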
Description: SANGER: Inhibition of human C8166 cell growth in a cell viability assay.

NCI-H209 = type: functional, cell-based, Homo sapiens; conditions: Homo sapiens, NCI-H209;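 also: growth inhibition of human NCI-H209 cells, measured by a cell viability assay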
Description: SANGER: Inhibition of human NCI-H209 cell growth in a cell viability assay.

C=CC(=O)N1CCCC(Nc2nc(Nc3ccc(N(C)C(=O)CC)cc3)nc3[nH]cnc23)C1 (stereo unspecified)
IC50 (EW-13): > 10.2 µM | IC50 (KNS-81-FD): > 10.2 µM | IC50 (NCI-H747): > 10.2 µM | IC50 (ES1): > 10.2 µM | IC50 (KP-N-YS): > 10.2 µM | IC50 (Becker): > 10.2 µM | IC50 (U-87 MG): > 10.2 µM | IC50 (NCI-H1395): > 10.2 µM | IC50 (LNCaP-Clone-FGC): > 10.2 µM | IC50 (AM-38): > 10.2 µM | IC50 (SNU1): > 10.2 µM | IC50 (HOP-62): > 10.2 µM | IC50 (ONS-76): > 10.2 µM | IC50 (RKO): > 10.2 µM | IC50 (CCRF-CEM): > 10.2 µM | IC50 (LS-513): > 10.2 µM | IC50 (LC-2-ad): 7.27 µM | IC50 (CAS-1): > 10.2 µM | IC50 (MOLT-16): > 10.2 µM | IC50 (NOMO-1): > 10.2 µM | IC50 (RH-1): > 10.2 µM | IC50 (MZ1-PC): 7.94 µM | IC50 (SHP77): > 10.2 µM | IC50 (SCH): > 10.2 µM | IC50 (LU-134-A): > 10.2 µM | IC50 (LB771-HNC): > 10.2 µM | IC50 (IST-MEL1): > 10.2 µM | IC50 (KALS-1): > 10.2 µM | IC50 (KARPAS-299): > 10.2 µM | IC50 (MSTO-211H): > 10.2 µM | IC50 (LB996-RCC): > 10.2 µM | IC50 (ES4): > 10.2 µM | IC50 (LAMA-84): > 10.2 µM | IC50 (SK-N-FI): > 10.2 µM | IC50 (HCC2157): > 10.2 µM | IC50 (BB30-HNC): 3.41 µM | IC50 (A101D): > 10.2 µM | IC50 (EW-16): 2.59 µM | IC50 (TE-5): > 10.2 µM | IC50 (JVM-3): > 10.2 µM | IC50 (RPMI-8866): > 10.2 µM | IC50 (KE-37): > 10.2 µM | IC50 (ACN): > 10.2 µM | IC50 (LB831-BLC): 2.95 µM | IC50 (ML-2): > 10.2 µM | IC50 (LAN-6): > 10.2 µM | IC50 (C8166): > 10.2 µM | IC50 (NCI-H209): > 10.2 µM

COc1ccc(N(C(=O)Oc2c(C)cccc2C)c2ccnc(Nc3ccc(N4CCN(C)CC4)cc3)n2)c(OC)c1
IC50 (EW-13): > 5.12 µM | IC50 (KNS-81-FD): > 5.12 µM | IC50 (NCI-H747): > 5.12 µM | IC50 (ES1): > 5.12 µM | IC50 (KP-N-YS): 4.92 µM | IC50 (Becker): 0.0638 µM | IC50 (U-87 MG): > 5.12 µM | IC50 (NCI-H1395): > 5.12 µM | IC50 (LNCaP-Clone-FGC): > 5.12 µM | IC50 (AM-38): > 5.12 µM | IC50 (SNU1): > 5.12 µM | IC50 (HOP-62): 0.916 µM | IC50 (ONS-76): > 5.12 µM | IC50 (RKO): > 5.12 µM | IC50 (CCRF-CEM): > 5.12 µM | IC50 (LS-513): > 5.12 µM | IC50 (LC-2-ad): 0.0203 µM | IC50 (CAS-1): 4.4 µM | IC50 (MOLT-16): > 5.12 µM | IC50 (NOMO-1): > 5.12 µM | IC50 (RH-1): > 5.12 µM | IC50 (MZ1-PC): 0.227 µM | IC50 (SHP77): > 5.12 µM | IC50 (SCH): > 5.12 µM | IC50 (LU-134-A): > 5.12 µM | IC50 (LB771-HNC): > 5.12 µM | IC50 (IST-MEL1): > 5.12 µM | IC50 (KALS-1): > 5.12 µM | IC50 (KARPAS-299): > 5.12 µM | IC50 (MSTO-211H): > 5.12 µM | IC50 (LB996-RCC): 0.0567 µM | IC50 (ES4): > 5.12 µM | IC50 (LAMA-84): < 0.02 µM | IC50 (SK-N-FI): > 5.12 µM | IC50 (HCC2157): > 5.12 µM | IC50 (BB30-HNC): 1.85 µM | IC50 (A101D): > 5.12 µM | IC50 (EW-16): > 5.12 µM | IC50 (TE-5): > 5.12 µM | IC50 (JVM-3): > 5.12 µM | IC50 (RPMI-8866): > 5.12 µM | IC50 (KE-37): > 5.12 µM | IC50 (ACN): 4.23 µM | IC50 (LB831-BLC): 0.127 µM | IC50 (ML-2): > 5.12 µM | IC50 (LAN-6): > 5.12 µM | IC50 (C8166): > 5.12 µM | IC50 (NCI-H209): > 5.12 µM
